Active and inactive are the calls of the source. The calls are words filed in the database; no cut-off is given here. Where a SMILES comes first, the peptide text is derived from it. Bridges are numbered along the chain shown (N, C = ends). Roman numbers before positions name the chains, in order. [ ]: non-standard residue; d: D form. 1Nal = N[C@@H](Cc1cccc2ccccc12)C(=O)O; 2Nal = N[C@@H](Cc1ccc2ccccc2c1)C(=O)O; Agb = N=C(N)NCC[C@H](N)C(=O)O
Assays:
[1] = biological target: T1, Relaxin-3 receptor 2 (Homo sapiens, UniProt Q8TDU9); experiment: Binding affinity to LgBiT-tagged RXFP4 (unknown origin) expressed in HEK cells assessed as inhibition constant incubated for 1 hr by NanoBiT assay; format: cell-based
[2] = biological target: T2, Relaxin-3 receptor 1 (Homo sapiens, UniProt Q9NSD7); experiment: Binding affinity to SmBit-tagged RXFP3 (unknown origin) expressed in HEK cells assessed as inhibition constant incubated for 1 hr by NanoBiT assay; format: cell-based; conditions: read-out: Ki
T2 sequence (Q9NSD7 whole entry): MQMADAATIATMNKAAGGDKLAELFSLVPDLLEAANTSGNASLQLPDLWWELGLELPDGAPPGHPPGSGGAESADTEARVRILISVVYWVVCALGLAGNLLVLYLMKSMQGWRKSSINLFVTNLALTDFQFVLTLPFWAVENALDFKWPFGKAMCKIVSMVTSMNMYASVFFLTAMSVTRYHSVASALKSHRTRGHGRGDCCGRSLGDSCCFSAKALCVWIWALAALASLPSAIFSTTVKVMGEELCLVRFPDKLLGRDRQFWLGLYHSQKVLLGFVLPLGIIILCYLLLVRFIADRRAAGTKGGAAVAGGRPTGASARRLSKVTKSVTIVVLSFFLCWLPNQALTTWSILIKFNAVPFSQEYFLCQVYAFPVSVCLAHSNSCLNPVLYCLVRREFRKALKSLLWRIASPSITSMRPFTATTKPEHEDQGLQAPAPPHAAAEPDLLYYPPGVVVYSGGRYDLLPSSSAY

[3] = biological target: T2, Relaxin-3 receptor 1; experiment: Agonist activity at RXFP3 (unknown origin) expressed in CHO cells co-transfected with pCRE-galactosidase reporter plasmid assessed as inhibition of forskolin-induced cAMP accumulation incubated for 6 hrs by reporter gene assay; format: functional, cell-based
[4] = biological target: T1, Relaxin-3 receptor 2; experiment: Agonist activity at RXFP4 (unknown origin) expressed in CHO cells co-transfected with pCRE-galactosidase reporter plasmid assessed as inhibition of forskolin-induced cAMP accumulation incubated for 6 hrs by reporter gene assay; format: functional, cell-based
[5] = biological target: T1, Relaxin-3 receptor 2; experiment: Agonist activity at RXFP4 in HEK293T cells assessed as beta-arrestin2 recruitment pretreated with coelenterazine for 10 mins followed by compound addition by BRET assay; format: functional, cell-based
[6] = Selectivity index, ratio of Ki for binding affinity to SmBit-tagged RXFP3 (unknown origin) expressed in HEK cells assessed as inhibition constant to Ki for binding affinity to LgBiT-tagged RXFP4 (unknown origin) expressed in HEK cells assessed as inhibition constant; format: cell-based

T1 sequence (Q8TDU9 whole entry): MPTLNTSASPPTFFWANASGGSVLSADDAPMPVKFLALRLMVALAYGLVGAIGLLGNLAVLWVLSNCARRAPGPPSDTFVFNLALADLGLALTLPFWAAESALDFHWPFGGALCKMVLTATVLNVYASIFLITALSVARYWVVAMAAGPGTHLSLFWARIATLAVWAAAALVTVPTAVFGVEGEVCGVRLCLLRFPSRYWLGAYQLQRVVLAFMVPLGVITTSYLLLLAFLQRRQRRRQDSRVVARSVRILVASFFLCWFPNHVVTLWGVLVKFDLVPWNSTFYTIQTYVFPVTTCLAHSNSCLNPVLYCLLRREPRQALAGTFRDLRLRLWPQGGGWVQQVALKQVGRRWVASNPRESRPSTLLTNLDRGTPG

Ki [1] [nM]	Ki [2] [nM]	EC50 ([3]; read-out: EC50) [µM]	EC50 ([4]; read-out: EC50) [nM]	EC50 [5] [nM]	Activity [4]	EC50 ([3]; cho, read-out: EC50) [µM]	EC50 ([3]; read-out: pEC50 (converted)) [µM]	EC50 ([4]; read-out: pEC50 (converted)) [nM]	Activity [5]	Structure (SMILES)	Ratio Ki [6]
2.29	603	4.79	1.17	22.4						CC[C@H](C)[C@@H]1NC(=O)[C@H](Cc2ccc(O)cc2)NC(=O)[C@H]([C@@H](C)CC)NC(=O)[C@H](C(C)C)NC(=O)[C@H]([C@@H](C)O)NC(=O)[C@H](CCCNC(=N)N)NC(=O)[C@H]([C@@H](C)CC)NC(=O)[C@H](Cc2ccc(O)cc2)NC(=O)[C@H](CCC(=O)O)NC(=O)[C@H](CC(C)C)NC(=O)CNC(=O)[C@@H](N)CSSC[C@H](N)C(=O)N[C@@H]([C@@H](C)O)C(=O)N[C@@H](CC(=O)O)C(=O)NCC(=O)N[C@@H](CS)C(=O)N[C@H](CO)C(=O)N[C@@H](CCSC)C(=O)N[C@@H](CCCCN)C(=O)N[C@@H](CC(=O)O)C(=O)N[C@@H](CC(C)C)C(=O)N[C@@H](CO)C(=O)N[C@@H](C)C(=O)N[C@@H](CC(C)C)C(=O)N[C@H](C(=O)O)CSSC[C@@H](C(=O)NCC(=O)NCC(=O)N[C@@H](CO)C(=O)N[C@@H](CCCNC(=N)N)C(=O)N[C@@H](Cc2c[nH]c3ccccc23)C(=O)O)NC1=O	263
3.09			9.12		inactive					CC[C@H](C)[C@@H]1NC(=O)[C@H](Cc2ccc(O)cc2)NC(=O)[C@H]([C@@H](C)CC)NC(=O)[C@H](C(C)C)NC(=O)[C@H]([C@@H](C)O)NC(=O)[C@H](CCCNC(=N)N)NC(=O)[C@H]([C@@H](C)CC)NC(=O)[C@H](Cc2ccc(O)cc2)NC(=O)[C@H](CCC(=O)O)NC(=O)[C@H](CC(C)C)NC(=O)CNC(=O)[C@@H](N)CSSC[C@H](N)C(=O)N[C@@H]([C@@H](C)O)C(=O)N[C@@H](CC(=O)O)C(=O)NCC(=O)N[C@@H](C)C(=O)N[C@@H](CO)C(=O)N[C@@H](CCSC)C(=O)N[C@@H](CCCCN)C(=O)N[C@@H](CC(=O)O)C(=O)N[C@@H](CC(C)C)C(=O)N[C@@H](CO)C(=O)N[C@@H](C)C(=O)N[C@@H](CC(C)C)C(=O)N[C@H](C(=O)O)CSSC[C@@H](C(=O)N[C@@H](C)C(=O)N[C@@H](CO)C(=O)N[C@@H](CO)C(=O)N[C@@H](CCNC(=N)N)C(=O)N[C@@H](Cc2cccc3ccccc23)C(=O)O)NC1=O (I: H-CGLEYIRTVIYICASS[Agb][1Nal]-OH / II: H-CTDGASMKDLSALC-OH; disulfide I:1-II:1, I:13-II:14)	
18.2	427		7.76			> 10	> 10			CC[C@H](C)[C@@H]1NC(=O)[C@H](Cc2ccc(O)cc2)NC(=O)[C@H]([C@@H](C)CC)NC(=O)[C@H](C(C)C)NC(=O)[C@H]([C@@H](C)O)NC(=O)[C@H](CCCNC(=N)N)NC(=O)[C@H]([C@@H](C)CC)NC(=O)[C@H](Cc2ccc(O)cc2)NC(=O)[C@H](CCC(=O)O)NC(=O)[C@H](CC(C)C)NC(=O)CNC(=O)[C@@H](N)CSSC[C@H](N)C(=O)N[C@@H]([C@@H](C)O)C(=O)N[C@@H](CC(=O)O)C(=O)NCC(=O)N[C@@H](CS)C(=O)N[C@H](CO)C(=O)N[C@@H](CCSC)C(=O)N[C@@H](CCCCN)C(=O)N[C@@H](CC(=O)O)C(=O)N[C@@H](CC(C)C)C(=O)N[C@@H](CO)C(=O)N[C@@H](C)C(=O)N[C@@H](CC(C)C)C(=O)N[C@H](C(=O)O)CSSC[C@@H](C(=O)NCC(=O)N[C@@H](CO)C(=O)N[C@@H](CO)C(=O)N[C@@H](CCCNC(=N)N)C(=O)N[C@@H](Cc2c[nH]c3ccccc23)C(=O)O)NC1=O	23.4
3.47			> 100000					> 10000	inactive	CC[C@H](C)[C@@H]1NC(=O)[C@H](Cc2ccc(O)cc2)NC(=O)[C@H]([C@@H](C)CC)NC(=O)[C@H](C(C)C)NC(=O)[C@H]([C@@H](C)O)NC(=O)[C@H](CCCNC(=N)N)NC(=O)[C@H]([C@@H](C)CC)NC(=O)[C@H](Cc2ccc(O)cc2)NC(=O)[C@H](CCC(=O)O)NC(=O)[C@H](CC(C)C)NC(=O)CNC(=O)[C@@H](NC(=O)[C@H](CC(C)C)NC(=O)[C@H](CCCNC(=N)N)NC(=O)[C@@H](NC(=O)[C@H](CO)NC(=O)[C@H](CCC(=O)O)NC(=O)[C@@H](N)CCCCN)C(C)C)CSSC[C@H](N)C(=O)N[C@@H]([C@@H](C)O)C(=O)N[C@@H](CC(=O)O)C(=O)NCC(=O)N[C@@H](C)C(=O)N[C@@H](CO)C(=O)N[C@@H](CCSC)C(=O)N[C@@H](CCCCN)C(=O)N[C@@H](CC(=O)O)C(=O)N[C@@H](CC(C)C)C(=O)N[C@@H](CO)C(=O)N[C@@H](C)C(=O)N[C@@H](CC(C)C)C(=O)N[C@H](C(=O)O)CSSC[C@@H](C(=O)N[C@@H](C)C(=O)N[C@@H](CO)C(=O)N[C@@H](CO)C(=O)N[C@@H](CCNC(=N)N)C(=O)N[C@@H](Cc2ccc3ccccc3c2)C(=O)O)NC1=O (I: H-KESVRLCGLEYIRTVIYICASS[Agb][2Nal]-OH / II: H-CTDGASMKDLSALC-OH; disulfide I:7-II:1, I:19-II:14)	
